Tests used:
[1] = test system: neural stem cells; experiment: Amyloid-β toxicity assessment on neural stem cells; assay type: cell-based, rat; settings: 20 μM amyloid-β protein, 48 hours
Description: After removing the cortex from the head of an embryonic rat that had been pregnant for 13 days, it was cultured for a week with Basic Fibroblast Growth Factor (bFGF) to obtain the neural stem cells. To analyze the effects of the amyloid-β protein on the neural stem cells, the pre-oligomerized amyloid-β protein of concentrations 0 to 40 μM was treated on neural stem cells for 48 hours, then CCK-8 assay, BrdU, and TUNEL assay were used for cytotoxicity assessment (refer from BA Yankner et al, 1990 and K N Dahlgren et al, 2002).

[2] = test system: GADD 153; experiment: 2D-electrophoresis protein expression in neural stem cells; assay type: cell-based, rat; settings: 20 ug β-amyloid treated group, versus negative control 1.0
Description: (§1) Protein expression level of PEP-1 treated group and untreated group was analyzed by 2D-electrophoresis technique and antibody microarray technique. Prepared 200 μg by extracting proteome from the neural stem cells cultured in Experiment 3-1 of Example 3. In addition, the group in which PEP-1 was not treated was used as the comparison group in the same condition.
(§2) 2D-electrophoresis was performed using 12% acrylamide gels. First gel electrophoresis was performed at PI 4˜10 N, using a gel size of 8.5×7 cm. After electrophoresis, it was dyed with Colloidal Coomassie Blue, and then compared expression by using PDQuest software to analyze each spot.
(§3) Difference in the expression levels of more than 1.5 times was identified using MALDI-TOF MS (Matrix Desorption/Ionization Time of Flight Mass Spectromestry). Among these, proteins correlated with inflammation-related signaling, such as i-NOS and HMGB-1 were identified (Refer to Table 6). The changes in protein expression levels either increased or decreased by 1.5 times by amyloid-β protein, but it was confirmed that expression level was regulated close to that of negative control when PEP-1 was added (Refer to FIGS. 14A-14B).
(§4) The Table 6 below is an analysis of expression levels of proteins associated with inflammation by 2D electrophoresis technique. The control group represents protein expression level of cells that were not treated with neither amyloid-β protein nor PEP-1.

[3] = test system: HMGB1; experiment: as above; assay type: cell-based, rat; settings: 20 ug β-amyloid treated group, versus negative control 1.0
Description: as §1, §2, §3, §4

[4] = test system: HSP 70; experiment: as above; assay type: cell-based, rat; settings: 20 ug β-amyloid treated group, versus negative control 1.0
Description: as §1, §2, §3, §4

[5] = test system: HSP 90; experiment: as above; assay type: cell-based, rat; settings: 20 ug β-amyloid treated group, versus negative control 1.0
Description: as §1, §2, §3, §4

[6] = test system: MAP Kinase; experiment: as above; assay type: cell-based, rat; settings: 20 ug β-amyloid treated group, versus negative control 1.0
Description: as §1, §2, §3, §4

[7] = test system: Pyk2; experiment: as above; assay type: cell-based, rat; settings: 20 ug β-amyloid treated group, versus negative control 1.0
Description: as §1, §2, §3, §4

[8] = test system: e-NOS; experiment: as above; assay type: cell-based, rat; settings: 20 ug β-amyloid treated group, versus negative control 1.0
Description: as §1, §2, §3, §4

[9] = test system: i-NOS; experiment: as above; assay type: cell-based, rat; settings: 20 ug β-amyloid treated group, versus negative control 1.0
Description: as §1, §2, §3, §4

[10] = test system: TNF-α; experiment: TNF-α ELISA in LPS-stimulated PBMC-derived monocytes; assay type: cell-based, human; settings: LPS 10 ng/ml 2 hrs, starved 1 hr, 4 uM for 2 hrs, ELISA of culture medium
Description: PBMC (peripheral blood mononuclear cell) was separated from the blood samples (50 ml) collected from healthy subjects using Ficoll-Paque™ PLUS (CYTIVA™, Piscataway, N.J., USA). PBMCs were then enriched in complete RPMI 1640 medium containing 20% of human serum, followed by transferring to 100 mm polystyrene cell culture plate coated with human serum for 30 mins. […]
To see the effect of PEP-1 on TNF-α level in terms of protein expression level. […] After culturing, cell soup was collected, and the amount of TNF-α was measured using ELISA kit (R&D, Minneapolis, Minn., USA) as follows:
TNF measurement uses sandwich ELISA method. […] Again, plate was washed, and avidin/biotin was added for measuring the absorbance. TNF-α level of each sample was quantified using the standard graph calculated from the absorbance of standard solution.
PBMC-derived monocytes were stimulated with endotoxin LPS (10 ng/ml) for 2 hrs, starved for 1 hr using OPTI-MEM®, and then 4 uM of FITC, FITC-TAT, PEP 1-FITC and FITC-PEP 1 were treated for 2 hrs. After incubation, TNF-α level was measured with cell culture medium using ELISA.

amyloid-β protein [reference compound]
cell survival [1]: 60% | GADD 153 expression (fold) [2]: 1.6 fold | HMGB1 expression (fold) [3]: −1.5 fold | HSP 70 expression (fold) [4]: −2.3 fold | HSP 90 expression (fold) [5]: −1.8 fold | MAP Kinase expression (fold) [6]: 2.2 fold | Pyk2 expression (fold) [7]: 2.0 fold | e-NOS expression (fold) [8]: 1.9 fold | i-NOS expression (fold) [9]: 1.9 fold

Fluorescein Isothiocyanate [FITC]
TNF-α level [10]: 6.2 ng/mL
